From ChEMBL document CHEMBL1140879, “Synthesis of isothiazol-3-one derivatives as inhibitors of histone acetyltransferases (HATs)” (Bioorg Med Chem, 2009)

Legend:
[1] = target: Histone acetyltransferase KAT2B (Homo sapiens, UniProt Q92831); experiment: Inhibition of GST-fused recombinant HAT PCAF expressed in Escherichia coli by filter assay
[2] = target: T1, Histone acetyltransferase p300 (Homo sapiens, UniProt Q09472); experiment: Inhibition of GST-fused recombinant HAT p300 expressed in Escherichia coli by filter assay
[3] = target: T1, Histone acetyltransferase p300; experiment: Inhibition of recombinant His-tagged HAT p300 expressed in Sf21-Baculovirus system
[4] = target: T1, Histone acetyltransferase p300; experiment: Inhibition of HAT p300

Sequence of Histone acetyltransferase KAT2B (Q92831 whole entry, the tested form may be a part): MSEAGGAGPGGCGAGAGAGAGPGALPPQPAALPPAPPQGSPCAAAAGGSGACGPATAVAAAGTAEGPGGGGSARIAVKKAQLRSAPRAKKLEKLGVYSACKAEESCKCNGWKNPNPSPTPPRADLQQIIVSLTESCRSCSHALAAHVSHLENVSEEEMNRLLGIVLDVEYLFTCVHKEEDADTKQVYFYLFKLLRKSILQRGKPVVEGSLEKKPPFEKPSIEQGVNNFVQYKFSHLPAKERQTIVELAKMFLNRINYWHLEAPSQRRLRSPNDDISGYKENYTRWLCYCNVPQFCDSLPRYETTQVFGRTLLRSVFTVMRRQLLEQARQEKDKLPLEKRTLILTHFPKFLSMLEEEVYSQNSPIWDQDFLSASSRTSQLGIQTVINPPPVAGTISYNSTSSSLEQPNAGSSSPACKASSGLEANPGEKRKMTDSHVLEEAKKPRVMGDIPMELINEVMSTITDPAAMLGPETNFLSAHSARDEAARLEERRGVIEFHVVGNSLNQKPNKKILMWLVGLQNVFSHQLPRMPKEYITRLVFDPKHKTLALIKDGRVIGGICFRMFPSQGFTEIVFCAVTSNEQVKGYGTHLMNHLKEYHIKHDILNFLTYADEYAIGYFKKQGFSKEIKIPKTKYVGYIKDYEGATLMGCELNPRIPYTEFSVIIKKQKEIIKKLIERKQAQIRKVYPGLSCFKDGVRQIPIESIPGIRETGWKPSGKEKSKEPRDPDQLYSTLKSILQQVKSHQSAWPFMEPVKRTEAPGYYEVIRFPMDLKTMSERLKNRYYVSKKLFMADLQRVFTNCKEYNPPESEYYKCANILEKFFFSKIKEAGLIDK
T1 sequence (Q09472 whole entry, the tested form may be a part): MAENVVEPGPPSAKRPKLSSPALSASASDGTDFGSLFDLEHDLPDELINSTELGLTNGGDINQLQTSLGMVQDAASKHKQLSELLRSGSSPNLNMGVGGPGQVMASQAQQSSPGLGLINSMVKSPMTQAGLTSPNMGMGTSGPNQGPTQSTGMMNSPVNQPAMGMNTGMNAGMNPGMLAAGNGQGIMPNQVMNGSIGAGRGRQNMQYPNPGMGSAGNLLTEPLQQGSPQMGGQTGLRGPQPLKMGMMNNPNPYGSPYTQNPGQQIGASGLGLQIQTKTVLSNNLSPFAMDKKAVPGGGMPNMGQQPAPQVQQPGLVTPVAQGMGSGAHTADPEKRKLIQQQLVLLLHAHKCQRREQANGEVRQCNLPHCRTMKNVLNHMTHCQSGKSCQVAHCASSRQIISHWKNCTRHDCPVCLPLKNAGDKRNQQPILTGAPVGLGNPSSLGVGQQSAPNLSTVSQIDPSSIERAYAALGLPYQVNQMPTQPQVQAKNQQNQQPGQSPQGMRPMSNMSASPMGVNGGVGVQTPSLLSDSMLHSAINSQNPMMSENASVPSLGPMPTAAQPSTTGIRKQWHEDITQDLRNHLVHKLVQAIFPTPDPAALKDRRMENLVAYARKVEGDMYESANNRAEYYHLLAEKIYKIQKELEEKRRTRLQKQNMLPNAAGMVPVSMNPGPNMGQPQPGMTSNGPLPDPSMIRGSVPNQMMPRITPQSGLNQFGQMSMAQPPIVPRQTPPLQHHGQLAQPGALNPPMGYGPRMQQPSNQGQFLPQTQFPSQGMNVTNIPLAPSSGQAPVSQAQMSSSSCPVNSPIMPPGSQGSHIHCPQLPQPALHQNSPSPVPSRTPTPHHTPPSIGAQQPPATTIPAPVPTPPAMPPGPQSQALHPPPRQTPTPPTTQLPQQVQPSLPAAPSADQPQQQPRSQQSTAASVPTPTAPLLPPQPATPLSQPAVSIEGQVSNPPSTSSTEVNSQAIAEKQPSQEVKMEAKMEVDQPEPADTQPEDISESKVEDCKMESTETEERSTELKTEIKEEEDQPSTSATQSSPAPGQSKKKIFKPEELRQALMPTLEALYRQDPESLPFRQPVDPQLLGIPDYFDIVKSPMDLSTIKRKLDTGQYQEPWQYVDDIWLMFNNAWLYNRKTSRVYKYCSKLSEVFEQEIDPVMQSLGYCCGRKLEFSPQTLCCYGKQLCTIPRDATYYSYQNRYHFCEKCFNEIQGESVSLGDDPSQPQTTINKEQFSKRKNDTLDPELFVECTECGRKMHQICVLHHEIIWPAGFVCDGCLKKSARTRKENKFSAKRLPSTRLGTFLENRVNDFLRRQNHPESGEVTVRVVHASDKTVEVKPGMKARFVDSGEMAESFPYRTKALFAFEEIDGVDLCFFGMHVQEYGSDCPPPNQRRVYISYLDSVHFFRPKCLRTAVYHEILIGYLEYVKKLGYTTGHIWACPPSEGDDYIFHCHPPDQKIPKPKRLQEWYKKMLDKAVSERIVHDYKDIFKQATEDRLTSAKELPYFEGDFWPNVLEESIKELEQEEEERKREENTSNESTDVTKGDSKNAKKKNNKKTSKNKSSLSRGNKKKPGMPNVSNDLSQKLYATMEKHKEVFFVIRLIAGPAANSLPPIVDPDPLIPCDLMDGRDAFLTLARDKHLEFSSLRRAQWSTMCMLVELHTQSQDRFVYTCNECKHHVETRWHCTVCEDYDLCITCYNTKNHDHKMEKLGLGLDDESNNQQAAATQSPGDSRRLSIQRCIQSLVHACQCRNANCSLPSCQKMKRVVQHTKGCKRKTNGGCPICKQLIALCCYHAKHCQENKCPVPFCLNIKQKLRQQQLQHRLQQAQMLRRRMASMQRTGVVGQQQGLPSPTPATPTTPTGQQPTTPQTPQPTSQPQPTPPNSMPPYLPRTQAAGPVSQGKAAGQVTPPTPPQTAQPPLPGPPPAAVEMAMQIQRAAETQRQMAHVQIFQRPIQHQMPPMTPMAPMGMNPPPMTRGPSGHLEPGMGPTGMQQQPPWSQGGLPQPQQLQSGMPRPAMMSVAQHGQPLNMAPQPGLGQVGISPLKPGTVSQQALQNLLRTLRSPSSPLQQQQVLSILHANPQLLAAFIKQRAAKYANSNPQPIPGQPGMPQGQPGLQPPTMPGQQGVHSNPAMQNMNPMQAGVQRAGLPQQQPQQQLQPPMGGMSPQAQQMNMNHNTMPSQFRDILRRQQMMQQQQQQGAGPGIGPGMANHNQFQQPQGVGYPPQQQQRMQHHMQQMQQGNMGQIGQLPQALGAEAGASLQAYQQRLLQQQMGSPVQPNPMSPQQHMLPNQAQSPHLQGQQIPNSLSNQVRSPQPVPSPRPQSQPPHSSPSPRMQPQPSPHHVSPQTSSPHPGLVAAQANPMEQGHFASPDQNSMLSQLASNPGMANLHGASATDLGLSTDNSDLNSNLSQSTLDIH

IC50 [1]	SMILES	other results
109 µM	O=c1cc(CO)sn1-c1ccccc1	
32 µM	Cc1csn(-c2ccccc2)c1=O	
42.7 µM	[N-]=[N+]=NCc1csn(-c2ccccc2)c1=O	
58 µM	[N-]=[N+]=NCc1cc(=O)n(-c2ccccc2)s1	
> 200 µM	Cc1cc(=O)n(-c2ccccc2)s1	
102 µM	COCc1csn(-c2ccccc2)c1=O	
> 200 µM	COc1sn(-c2ccccc2)c(=O)c1C	
162 µM	CC(=O)OCc1cc(=O)n(-c2ccccc2)s1	
> 200 µM	O=c1cc(-c2ccccc2)sn1-c1ccccc1	
19.8 µM	Cc1c(Cl)sn(-c2ccccc2)c1=O	
> 200 µM	O=C(Nc1ccccc1)OCc1cc(=O)n(-c2ccccc2)s1	

The remaining lines, values behind:

SMILES	IC50 [1]	other results
O=c1c2cccnc2sn1-c1ccccc1	6.1 µM	
CN(C)c1ccc(-n2sccc2=O)cc1	5.4 µM	
O=c1ccsn1-c1cccnc1	6.5 µM	IC50 [2]: 14.4 µM
O=c1ccsn1-c1cc(F)c(F)c(F)c1	3.1 µM	
O=c1ccsn1-c1cccc(Cl)c1F	5.4 µM	
O=c1ccsn1-c1ccccn1	19 µM	IC50 [2]: 28 µM
O=c1ccsn1-c1ccc(N2CCOCC2)cc1	7.5 µM	IC50 [2]: 9.9 µM
O=c1ccsn1-c1ccncc1	1.5 µM	IC50 [2]: 3 µM
O=c1ccsn1-c1ccccc1	28 µM	IC50 [2]: 23 µM
C=CC/C=C\C/C=C\CCCCCCCc1cccc(O)c1C(=O)O [ANACARDIC ACID]		IC50 [3]: 5 µM
C=C(C)[C@@H](CC=C(C)C)C[C@@]12C[C@@H](CC=C(C)C)C(C)(C)[C@@](CC=C(C)C)(C(=O)C(C(=O)c3ccc(O)c(O)c3)=C1O)C2=O [GARCINOL]		IC50 [4]: 6 µM
